Measured values from patent US20240148664A1, “LIPID AND COMPOSITION” (SOGO PHARMACEUTICAL CO., LTD., priority 2021, published 2024).

Assays:
[1] = test system: HT1080-EGFP (human/fibrosarcoma) cells; test: Evaluation of knockdown effect (GFP assay), Cell experiment 1; assay type: cell-based; details: lipid nanoparticle containing siRNA against EGFP; fluorescence intensity with control cells without lipid nanoparticle set at 100
Protocol: A cell experiment was carried out by using HT1080-EGFP (human/fibrosarcoma) cells in order to evaluate lipid nanoparticles encapsulating an siRNA produced by using the lipids of the Examples and the Comparative Examples. These cells are cells provided with a green fluorescent protein gene (EGFP). The expression of EGFP can be easily confirmed by measuring the fluorescence intensity of a solution in which the cells are lysed, and thus by acting lipid nanoparticles encapsulating an siRNA that suppresses the expression of EGFP and observing any decrease in fluorescence intensity, the performance of the lipid nanoparticles used can be evaluated. Hereinafter, the procedure of the cell experiment will be shown.
(§1) A. Provision of Cells • (i) A liquid medium (DMEM/Ham's F12, FBS+, P/S+) (FBS: fetal bovine serum, P/S: antibiotic) was taken out from a refrigerator and temperature-controlled in an incubator set at 37° C. • (ii) A cryotube containing the cells was taken out from a −80° C. freezer and thawed at once in an incubator set at 37° C. • (iii) A stock solution of the thawed cells was collected in a capped test tube. • (iv) The tube containing the cells was washed with the liquid medium, and the wash was also collected in the test tube. • (v) The tube was subjected to a centrifuge to precipitate the cells. • (vi) The supernatant was aspirated, and the liquid medium was added and gently tapped to disperse the cells. • (vii) A small amount of the cells-dispersed liquid medium was collected, and the number of cells was observed and counted under a microscope. • (viii) The cells were seeded in a 24-well plate such that the number of cells was 2×10^4 cells per well. For the plate for an LDH assay described later, the cells were seeded in a 96-well plate such that the number of cells was 4×10^3 cells per well. • (ix) The 24-well plate or the 96-well plate was placed in an incubator, and the cells were cultured for 24 hours under conditions of 37° C. and 5% CO2.
(§2) The produced lipid nanoparticles were introduced into cells. • (i) Fetal bovine serum (FBS) was added to a liquid medium (FBS-, P/S-) temperature-controlled as in (i) of A above, in such a way as to reach 10%. • (ii) A 24-well plate was taken out from an incubator, and the liquid medium supernatant in the 24-well plate was aspirated and washed with phosphate buffered saline (PBS). • (iii) 400 μL of the liquid medium produced in (i) above was added to the washed 24-well plate. In addition, 100 μL of an LNP solution having an adjusted concentration was added. • (iv) The 24-well plate was placed in the incubator, and the cells were cultured (for 24 hours). • (v) After 24 hours, the liquid medium supernatant in the 24-well plate was aspirated, and 500 μL of a liquid medium containing 10% FBS (FBS+/P/S+) was added. • (vi) The 24-well plate was placed in the incubator, and the cells were cultured for 24 hours under conditions of 37° C. and 5% CO2.
By carrying out a GFP assay, the EGFP expression level in cells was measured to evaluate the effect of knocking down the green fluorescent protein gene (EGFP) by lipid nanoparticles. • (i) A 24-well plate was taken out from an incubator and washed with PBS. • (ii) A 1% octylglucoside solution to which a protease inhibitor was added was added in order to disrupt cells. Stirring with a pipette lysed the cells. • (iii) The cell lysate was transferred to an Eppendorf tube and subjected to a centrifuge. • (iv) 150 μL of the supernatant was collected and added to a plate for fluorescence measurement. • (v) The fluorescence intensity was measured under conditions of an excitation wavelength of 485 nm and a fluorescence wavelength of 535 nm with a plate reader (manufactured by TECAN, Infinite M200). The fluorescence intensity was calculated with the fluorescence intensity of control cells to which no lipid nanoparticle was added set at 100.

[2] = test system: HT1080-EGFP (human/fibrosarcoma) cells; test: Evaluation of toxicity: CCK-8 assay; assay type: cell-based; details: lipid nanoparticle containing siRNA; absorbance relative to control cells without lipid nanoparticle set at 1.00
Protocol: as §1, §2
For Examples 1 to 9, a CCK-8 assay or an LDH assay was carried out to measure the metabolic activity of viable cells and relatively quantify the number of surviving cells to evaluate the toxicity of lipid nanoparticles.
(a) CCK-8 Assay • (i) Fetal bovine serum (FBS) and a viable cell counting kit (manufactured by DOJINDO LABORATORIES, Cell Count Kit-8) was added to a liquid medium (FBS-, P/S-) temperature-controlled as in (i) of A above, such that FBS was 10% and the kit was 10%. • (ii) A 24-well plate was taken out from an incubator. The liquid medium was removed, and 315 μL of the liquid medium containing the viable cell counting kit produced in (i) above was added. • (iii) The liquid medium was aged for 1 hour in the incubator. • (iv) The 24-well plate was taken out, and the absorbance was measured under conditions of a measurement wavelength of 450 nm and a target wavelength of 630 nm with a plate reader (manufactured by TECAN, Infinite M200). The absorbance was calculated with the absorbance of control cells to which no lipid nanoparticle was added set at 1.00. When the obtained value was 0.80 or more and 1.00 or less, a rating of double-circle (excellent) was given, when the obtained value was 0.50 or more and less than 0.80, a rating of circle (good) was given, when the obtained value was 0.20 or more and less than 0.50, a rating of triangle (fair) was given, and when the obtained value was less than 0.20, a rating of X-mark (poor) was given.

## CCCCCCCC/C=C\CCCCCCCCC(CCCCCCC/C=C\CCCCCCCC)OC(=O)C(CC(=O)O)NC(=N)N (stereo not shown) [Comparative Example 2, 3-guanidino-4-(((9Z,27Z)-hexatriaconta-9,27-dien-18-yl)oxy)-4-oxobutanoic acid, reference compound]
[1]
  GFP Assay: 97

## CCCCCCCC/C=C\CCCCCCCCC(CCCCCCC/C=C\CCCCCCCC)OC(=O)C(CCC(=O)O)NC(=N)N (stereo not shown) [Comparative Example 3, 4-guanidino-5-(((9Z,27Z)-hexatriaconta-9,27-dien-18-yl)oxy)-5-oxopentanoic acid, reference compound]
[1]
  GFP Assay: 102

## CCCCCCCC/C=C\CCCCCCCCC(CCCCCCC/C=C\CCCCCCCC)OC(=O)C(CC(=O)O)NC(=O)C(N)CCCNC(=N)N (stereo not shown) [Example 1, 3-(2-amino-5-guanidinopentanamido)-4-(((9Z,27Z)-hexatriaconta-9,27-dien-18-yl)oxy)-4-oxobutanoic acid]
[1]
  GFP Assay: 28
[2]
  CCK Assay: ⊚ (When the obtained value was 0.80 or more and 1.00 or less, a rating of double-circle (excellent) was given)

## CCCCCCCC/C=C\CCCCCCCCC(CCCCCCC/C=C\CCCCCCCC)OC(=O)C(CCC(=O)O)NC(=O)C(N)CCCNC(=N)N (stereo not shown) [Example 2, 4-(2-amino-5-guanidinopentanamido)-5-(((9Z,27Z)-hexatriaconta-9,27-dien-18-yl)oxy)-5-oxopentanoic acid]
[1]
  GFP Assay: 24
[2]
  CCK Assay: ⊚ (When the obtained value was 0.80 or more and 1.00 or less, a rating of double-circle (excellent) was given)

## CCCCCCCC/C=C\CCCCCCCCC(CCCCCCC/C=C\CCCCCCCC)OC(=O)C(CO)NC(=O)C(N)CCCNC(=N)N [Example 4, (9Z,27Z)-hexatriaconta-9,27-dien-18-yl (2S)-2-((S)-2-amino-5-guanidinopentanamido)-3-hydroxypropionate]
[1]
  GFP Assay: 7
[2]
  CCK Assay: ◯ (when the obtained value was 0.50 or more and less than 0.80, a rating of circle (good) was given)

## CCCCCCCC/C=C\CCCCCCCCC(CCCCCCC/C=C\CCCCCCCC)OC(=O)C(NC(=O)C(N)CCCNC(=N)N)C(C)O [Example 5, (9Z,27Z)-hexatriaconta-9,27-dien-18-yl (2S)-2-((S)-2-amino-5-guanidinopentanamido)-3-hydroxybutanoate]
[1]
  GFP Assay: 22

## CCCCCCCC/C=C\CCCCCCCCC(CCCCCCC/C=C\CCCCCCCC)OC(=O)[C@H](CCSC)NC(=O)[C@@H](N)CCCNC(=N)N (stereo partly shown) [Example 6, (9Z,27Z)-hexatriaconta-9,27-dien-18-yl arginylmethioninate]
[1]
  GFP Assay: 40
